Experimental findings from patent US8575364B2, “Modulators of serotonin receptor” (Janssen Pharmaceutica NV, priority 2008, dated 2013) are described below.

Experiment [1] has as its target rat 5-HT7 receptors (Rattus norvegicus (Rat), UniProt P32305). In words: r5-HT7 competitive radioligand binding assay ([3H]5-CT). To be noted: membrane fractions of HEK-293 cells recombinantly expressing rat 5-HT7. On the procedure: Compound affinity for the rat 5-HT7 receptor subtype was evaluated by competitive radioligand binding assays using 5-carboxamido[^3H]tryptamine ([^3H]5-CT) (Amersham Biosciences, cat. 90000403) detection. HitHunter™ cAMP assays are in-vitro based competitive immunoassays. […] Cells were pre-incubated with test compounds for 10 minutes. For agonistic testing, the concentration of test compound that produced a half-maximal response is represented by the EC50 value. Compounds were assayed in their free form or as salts, as indicated in the Examples section above.

Experiment [2] has as its target r5-HT7 receptor (Rattus norvegicus (Rat), UniProt P32305). Briefly: HitHunter cAMP assay, agonistic testing. To be noted: HEK-293 cells stably transfected with r5-HT7 receptor. It is filed as cell-based. As to the method: Receptor binding was performed using membrane fractions prepared from the HEK-293 cell line recombinantly expressing rat 5-HT7 receptors (NCBI accession NM_022938). Compound affinity for the rat 5-HT7 receptor subtype was evaluated by competitive radioligand binding assays using 5-carboxamido[^3H]tryptamine ([^3H]5-CT) (Amersham Biosciences, cat. 90000403) detection. HitHunter™ cAMP assays are in-vitro based competitive immunoassays. The assay was performed on the HEK-293 cell line stably transfected with r5-HT7 receptor. Cells were pre-incubated with test compounds for 10 minutes. For agonistic testing, the concentration of test compound that produced a half-maximal response is represented by the EC50 value. Compounds were assayed in their free form or as salts, as indicated in the Examples section above.

pEC50, pKi: −log10 of the molar value. Where a name gives a salt, the structure may show the parent alone.

Sequence of r5-HT7 receptor (P32305 1-435): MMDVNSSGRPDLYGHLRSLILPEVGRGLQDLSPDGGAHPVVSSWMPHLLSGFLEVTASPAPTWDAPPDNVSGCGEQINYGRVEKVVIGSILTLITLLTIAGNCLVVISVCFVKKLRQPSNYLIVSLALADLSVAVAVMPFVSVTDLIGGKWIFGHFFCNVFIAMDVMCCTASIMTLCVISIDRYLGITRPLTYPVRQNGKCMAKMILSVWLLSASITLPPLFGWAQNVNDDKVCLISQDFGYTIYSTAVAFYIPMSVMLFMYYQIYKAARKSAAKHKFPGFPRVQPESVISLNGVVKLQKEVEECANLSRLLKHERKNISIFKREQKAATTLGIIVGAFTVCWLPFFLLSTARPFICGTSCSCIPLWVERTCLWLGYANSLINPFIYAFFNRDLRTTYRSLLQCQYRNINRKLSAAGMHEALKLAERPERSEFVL
Sequence of rat 5-HT7 receptors (P32305 1-435): as above

As usually defined, the pKi is −log10 of the Ki, conventionally taken in molar units. As a reminder, the pEC50 is the negative decadic logarithm of the EC50, by convention in mol/L. As to `COc1ccc(-c2ccccc2C)cc1OC1CNC1` [Example 8, 3-(4-Methoxy-2′-methyl-biphenyl-3-yloxy)-azetidine trifluoroacetate], the pKi in experiment [1] was 7.87. In experiment [2], this molecule had a pEC50 of 6.10. For `COc1ccc(-c2cccc(F)c2C)cc1OC1CNC1` [Example 5, 3-(3′-Fluoro-4-methoxy-2′-methyl-biphenyl-3-yloxy)-azetidine], in that order: 7.72 and 5.80.

`COc1ccc(-c2ccccc2C#N)cc1OC1CNC1` [Example 3, 3′-(Azetidin-3-yloxy)-4′-methoxy-biphenyl-2-carbonitrile trifluoroacetate]: in experiment [1], the pKi is 7.47. Still for that read-out and setting: for `FC(F)(F)c1ccccc1-c1ccc(Cl)c(OC2CNC2)c1` [Example 25, 3-(4-Chloro-2′-trifluoromethyl-biphenyl-3-yloxy)-azetidine trifluoroacetate] the value was 7.98; for `Clc1ccccc1-c1cccc(OC2CNC2)c1` [Example 21, 3-(2′-Chloro-biphenyl-3-yloxy)-azetidine], 7.46. Turning to `Cc1ccccc1-c1ccccc1C1CCNC1` (racemic) [Example 59, (±)-3-(2′-Methyl-biphenyl-2-yl)-pyrrolidine], in experiment [1], the pKi is 6.68.

In the case of `COc1ccc(-c2ccccc2)cc1C1CCN(C)C1` (racemic) [Example 50, (±)-3-(4-Methoxy-biphenyl-3-yl)-1-methyl-pyrrolidine], the pKi in experiment [1] was 6.82.

As to `COc1ccc(-c2ccccc2Cl)cc1OC1CNC1` [Example 17, 3-(2′-Chloro-4-methoxy-biphenyl-3-yloxy)-azetidine], the pKi in experiment [1] was 8.35. In experiment [2], this molecule gave a pEC50 of 6.10. `c1ccc(-c2ccccc2C2CCNC2)cc1` (racemic) [Example 51, (±)-3-Biphenyl-2-yl-pyrrolidine]: the pKi in experiment [1] was 6.92. The same measure, in the same setting: for `Clc1cccc(-c2ccc(Cl)cc2C2CCNC2)c1` (racemic) [Example 65, (±)-3-(4,3′-Dichloro-biphenyl-2-yl)-pyrrolidine] the value was 6.89; for `COc1ccc(-c2ccc(C)c(C)c2)cc1OC1CNC1` [Example 14, 3-(4-Methoxy-3′,4′-dimethyl-biphenyl-3-yloxy)-azetidine], 6.60.

As to `COc1ccc(-c2cccc(F)c2F)cc1C1CCNC1` (racemic) [Example 45, (±)-3-(2′,3′-Difluoro-4-methoxy-biphenyl-3-yl)-pyrrolidine], the pKi in experiment [1] was 7.28. As for `Cc1ccc(-c2ccc(Cl)cc2C2CCNC2)cc1C` (racemic) [Example 67, (±)-3-(4-Chloro-3′,4′-dimethyl-biphenyl-2-yl)-pyrrolidine], in experiment [1], the pKi is 6.92.

As for `COc1ccc(-c2c(C)cccc2C)cc1OC1CNC1` [Example 6, 3-(4-Methoxy-2′,6′-dimethyl-biphenyl-3-yloxy)-azetidine trifluoroacetate], the pKi in experiment [1] was 8.09.

With `COc1ccc(-c2ccccc2OC)cc1OC1CNC1` [Example 9, 3-(4,2′-Dimethoxy-biphenyl-3-yloxy)-azetidine], the pKi in experiment [1] is 7.30. With `N#Cc1ccc(-c2ccccc2C(F)(F)F)cc1OC1CNC1` [Example 28, 3-(Azetidin-3-yloxy)-2′-trifluoromethyl-biphenyl-4-carbonitrile], in experiment [1], the pKi is 6.90. Still for that read-out and setting: the value for `COc1ccc(-c2ccc(F)cc2C)cc1OC1CNC1` [Example 2, 3-(4′-Fluoro-4-methoxy-2′-methyl-biphenyl-3-yloxy)-azetidine] was 7.68. Take `Cc1ccccc1-c1ccc(C#N)c(OC2CNC2)c1` [Example 30, 3-(Azetidin-3-yloxy)-2′-methyl-biphenyl-4-carbonitrile]: the pKi in experiment [1] was 6.29. `Cc1cccc(-c2ccc(Cl)cc2OC2CNC2)c1` [Example 38, 3-(4-Chloro-3′-methyl-biphenyl-2-yloxy)-azetidine]: in experiment [1], the pKi is 6.72. The same measure, in the same setting: the value for `Cc1ccccc1-c1ccc(Cl)c(OC2CNC2)c1` [Example 26, 3-(4-Chloro-2′-methyl-biphenyl-3-yloxy)-azetidine trifluoroacetate] was 7.81; that for `COc1ccc(-c2ccccc2Cl)cc1OC1CN(C2CCC2)C1` [Example 19, 3-(2′-Chloro-4-methoxy-biphenyl-3-yloxy)-1-cyclobutyl-azetidine trifluoroacetate] was 6.52. As to `COc1ccc(-c2ccccc2C(F)(F)F)cc1OC1CNC1` [Example 1, 3-(4-Methoxy-2′-trifluoromethyl-biphenyl-3-yloxy)-azetidine], in experiment [1], the pKi is 8.42. For the same molecule, the pEC50 in experiment [2] is 6.70. As for `COc1ccc(-c2cccc(C(F)(F)F)c2)cc1C1CCNC1` (racemic) [Example 46, (±)-3-(4-Methoxy-3′-trifluoromethyl-biphenyl-3-yl)-pyrrolidine], the pKi in experiment [1] was 6.93. Consider `Cc1ccccc1-c1ccc(OC2CCC2)c(OC2CNC2)c1` [Example 34, 3-(4-Cyclobutoxy-2′-methyl-biphenyl-3-yloxy)-azetidine], for which, in experiment [1], the pKi was 6.18.

Take `COc1ccc(-c2ccccc2C(F)(F)F)cc1C1CCNC1` (racemic) [Example 47, (±)-3-(4-Methoxy-2′-trifluoromethyl-biphenyl-3-yl)-pyrrolidine]: the pKi in experiment [1] is 8.10. Take `COc1ccc(-c2cccc(C)c2C)cc1OC1CNC1` [Example 4, 3-(4-Methoxy-2′,3′-dimethyl-biphenyl-3-yloxy)-azetidine]: the pKi in experiment [1] was 7.96. The molecule further gave a pEC50 in experiment [2] of 6.20.
